Laboratory results taken from patent US7018618B2, “Stable pharmaceutical solution formulations for pressurized metered dose inhalers” (Chiesi Farmaceutici S.p.A., priority 2000, dated 2006).

Key:
Type in all cases: physicochemical
[1] = Stability of acidified formoterol/BDP-HFA 134a solutions in cans coated with a fluorocarbon polymer; settings: HFA 134a/12% ethanol/0.4% isopropyl myristate, 3.25 μl 1.0 M HCl
Text: (§1) Each value is expressed as percent nominal drug concentration.

[2] = Effect of hydrochloric acid on solution pH′ (acidity function) in model vehicle HFA 43-10MEE (Vertrel XF); settings: titrated with a strong acid in model vehicle HFA 43-10MEE (Vertrel XF)
Method: The meter reading represents an apparent pH or acidity function (pH′).
(a) 1.0 M hydrochloric acid was added incrementally to 50 mL of HFA 43-10MEE (Vertrel XF) containing 20% w/w ethanol and pH′ measured after each aliquot of acid.

[3] = Stability of acidified TA 2005-HFA 134a solutions in cans coated with a fluorocarbon polymer; settings: for stability (in words): almost three months at 50° C.
Text: as §1

[4] = as above

Row | percent nominal drug concentration ([1]; 4° C., 64 days inverted) [percent nominal] | percent nominal drug concentration ([1]; 4° C., 123 days inverted) [percent nominal] | percent nominal drug concentration ([1]; Initial) [percent nominal] | pH′ down to which the titration profile is shallow, thereafter the acidity function drops abruptly [2] | percent nominal drug concentration ([3]; 1.0 μl 0.08 M HCl per can (apparent pH about 4.8), 50° C., 22 days upright) [percent nominal] | percent nominal drug concentration ([3]; 1.0 μl 0.08 M HCl per can (apparent pH about 4.8), 50° C., 83 days upright) [percent nominal] | percent nominal drug concentration ([3]; 1.0 μl 0.08 M HCl per can (apparent pH about 4.8), Initial, HFA 134a/12% ethanol/1.0% isopropyl myristate, coated cans) [percent nominal] | percent nominal drug concentration ([3]; 1.4 μl 0.08 M HCl per can (apparent pH about 3.2), 50° C., 22 days upright) [percent nominal] | percent nominal drug concentration ([3]; 1.4 μl 0.08 M HCl per can (apparent pH about 3.2), 50° C., 83 days upright) [percent nominal] | percent nominal drug concentration ([3]; 1.4 μl 0.08 M HCl per can (apparent pH about 3.2), Initial) [percent nominal] | percent nominal drug concentration ([3]; 1.8 μl 0.08 M HCl per can (apparent pH about 2.9), 50° C., 22 days upright) [percent nominal] | percent nominal drug concentration ([3]; 1.8 μl 0.08 M HCl per can (apparent pH about 2.9), 50° C., 83 days upright) [percent nominal] | percent nominal drug concentration ([3]; 1.8 μl 0.08 M HCl per can (apparent pH about 2.9), Initial) [percent nominal] | stability (in words) ([3]; apparent pH between 3.0 and 5.0, stable = much less than 10% loss of drug) | stability (in words) ([3]; apparent pH of less than 3) | apparent pH ([4]; 1.0 μl 0.08 M hydrochloric acid per can, 3.5 μg/50 μl in HFA 134a/12% ethanol/1.0% isopropyl myristate) | apparent pH ([4]; 1.4 μl 0.08 M hydrochloric acid per can) | apparent pH ([4]; 1.8 μl 0.08 M hydrochloric acid per can) | SMILES
1 | 100.10 | 102.6 | 99.4 |  |  |  |  |  |  |  |  |  |  |  |  |  |  |  | CCC(=O)OCC(=O)[C@@]1(OC(=O)CC)[C@@H](C)C[C@H]2[C@@H]3CCC4=CC(=O)C=C[C@]4(C)[C@@]3(Cl)[C@@H](O)C[C@@]21C [BDP, beclometasone dipropionate]
2 |  |  |  | ~5.0 | 98.3 | 99.4 | 100.0 | 98.2 | 98.8 | 100.0 | 90.2 | 88.1 | 100.0 | stable | not | about 4.8 | ~3.2 | ~2.9 | COc1ccc(C[C@@H](C)NC[C@H](O)c2ccc(O)c3[nH]c(=O)ccc23)cc1 [TA 2005, 8-hydroxy-5-[(1R)-1-hydroxy-2-[[(1R)-2-(4-methoxyphenyl)-1-methylethyl]amino]ethyl]-2(1H)-quinolinone]
